Data taken from US9084813B2, “Agents that reduce neuronal overexcitation” (The J. David Gladstone Institutes, priority 2007, dated 2015).

Assays:
mice [1] = test: Excitotoxicity assessment: kainate-induced seizures; type: in vivo, mouse; conditions: Tau^+/+ mice, single i.p. injection, 20-40 mg/kg, age 2-5 months
Experimental: (§1) Drugs were dissolved in PBS and delivered by intraperitoneal injection. Pentylenetetrazole (PTZ, Sigma, St. Louis, Mo.) was used at a concentration of 5 mg/ml and a dose of 40 mg/kg. Kainate (Tocris, Ellisville, Mo.) was used at a concentration of 2 mg/ml and doses ranging from 20-40 mg/kg. For mice given PTZ, each mouse was placed in a cage and observed for 20 min after administration, with video recording. An investigator blinded to genotype analyzed the videotapes to quantify the time course and severity of seizures according to published scales (9, 10). Seizures severity scores were: 0=normal behavior; 1=immobility; 2=generalized spasm, tremble, or twitch; 3=tail extension; 4=forelimb clonus; 5=generalized clonic activity; 6=bouncing or running seizures; 7=full tonic extension; 8=death. For mice given KA, each mouse was placed in a cage and observed for 3 hours after administration. An investigator blinded to genotype quantified the time course and severity of seizures according to published scales (11); the percentage of mice attaining stage 6 (generalized tonic-clonic seizures) is presented.
A value of P<0.05 was considered significant. […] Survival data (FIG. 2E) was analyzed with Kaplan-Meier statistics and post-hoc log rank tests. […] For other experiments, genotype differences were analyzed by ANOVA (repeated measures where indicated), using the Tukey test for post-hoc comparisons.

mice [2] = test: Excitotoxicity assessment: PTZ-induced seizures; type: in vivo, mouse; conditions: single i.p. injection 40 mg/kg
Experimental: as §1
A value of P<0.05 was considered significant. Error bars represent standard error of the mean. Survival data (FIG. 2E) was analyzed with Kaplan-Meier statistics and post-hoc log rank tests. Fisher's exact test was used to analyze occurrence of fatal status epilepticus after PTZ injection. Logistic regression was used to generate and compare dose-response curves for the proportion of mice seizing after KA administration (FIG. 4D). For other experiments, genotype differences were analyzed by ANOVA (repeated measures where indicated), using the Tukey test for post-hoc comparisons.

Row | SMILES | induction of generalized tonic-clonic seizures (mice [1]) | mice suffering fatal status epilepticus (mice [2]; hAPP/Tau^+/+ mice, age 4-7 months) [%] | death after PTZ (mice [2]; hAPP/Tau^+/− and hAPP/Tau^−/− mice) | lethality of the dose (mice [2]; mice without hAPP)
1 | C=C(C)[C@H]1CN[C@H](C(=O)O)[C@H]1CC(=O)O [kainate, Kainate] | dose-dependently induced seizures | – | – | –
2 | C1CCc2nnnn2CC1 [PTZ, Pentylenetetrazole] | – | 20 | no hAPP/Tau^+/− or hAPP/Tau^−/− mice died | non-lethal
